The values that follow come from patent publication US8318697B2, “Prophylactic and therapeutic treatment of infectious and other diseases with mono- and disaccharide-based compounds” (Corixa Corporation, priority 2000, dated 2012).

Assay [1] has as its system Ogawa P. gingivalis LPS stimulated whole blood cells. Put plainly: Inhibition of LPS-induced cytokines in whole blood. The format is cell-based, human. The following applies: 10, 5, 2.5 ug/mL. From the text: Table 4 provides the maximum levels of IL-4, IL-2 and IL-5 obtained, as well as ratios of TNF to IL-10, and ratios of IL-10 to TNF. Inhibition data for IL-8, reported as a percentage, are also provided on the right hand side of Table 4. For example, 90% inhibition would calculate to a 90% reduction of cytokine levels. MIP-1β results were similar. […]

Another assay deals with human whole blood. It is filed as cell-based. The following applies: for cytokine stimulation in human whole blood cultures: overnight culture.
In assay [2] the test system is L. monocytogenes 10403 serotype. Put plainly: Murine Listeria monocytogenes challenge model. The format is in vivo, Mice. The note with it: 1 μg intravenously in 0.2% TEOA, challenge two days later; FIGS. 14-17. How it is done:
This example provides experiments evaluating the induction of non-specific resistance in the murine Listeria monocytogenes challenge model performed using various AGPs and MPL. Mice (5 per group) were treated intravenously with the 1 μg of an AGP or MPL solubilized in 0.2% TEOA. Two days later the mice were challenged intravenously with a ˜10^5 L. monocytogenes 10403 serotype (provided by M. L. Gray, Montana State University, Bozeman, Mont.). Two days after the challenge, the mice were sacrificed and the number of colony forming units (CFUs) in the spleens of individual mice were determined by plating 10-fold serial dilutions of splenic homogenates on tryptic soy agar plates. The degree of protection afforded by a given AGP or MPL was calculated by subtracting the average number of bacteria per spleen (log 10 value) in the group of mice treated with a given compound, from the average number of bacteria per spleen (log 10 value) in a control group that was “sham” treated with vehicle (0.2% TEOA) prior to challenge with L. monocytogenes.

The structures appear in SMILES notation. Several values for one entry are separate records, joined by “and”; a condition that tells them apart may be missing. Equal values may be shown once. Read-outs that look alike come from different tables or passages of the source.

With `CCCCCCCCCCCCCC(=O)O[C@H](CCCCCCCCCCC)CC(=O)N[C@H]1[C@H](OC[C@H](NC(=O)C[C@@H](CCCCCCCCCCC)OC(=O)CCCCCCCCCCCCC)C(=O)O)O[C@H](CO)[C@@H](OP(=O)(O)O)[C@@H]1OC(=O)C[C@@H](CCCCCCCCCCC)OC(=O)CCCCCCCCCCCCC.CCN(CC)CC` [RC-512], the “% inhib. LPS IL-8” value in assay [1] is recorded as −1%. For the same compound, the “IL-1β cba2” value in the assay with human whole blood (donor 1) came out at 3230. Also, the IL10/TNFα cba in the assay with human whole blood (donor 2, ratio of IL-10 to TNF) is on record as 0.4. Moreover, the TNFα/IL10 cba with human whole blood (donor 2, ratio of TNF to IL-10) is on record as 3.9.
In the case of `CCCCCCCCCCC[C@H](CC(=O)N[C@H]1[C@H](OC[C@H](NC(=O)C[C@@H](CCCCCCCCCCC)OC(=O)CCCCCCCCC)C(N)=O)O[C@H](CO)[C@@H](OP(=O)(O)O)[C@@H]1OC(=O)C[C@@H](CCCCCCCCCCC)OC(=O)CCCCCCCCC)OC(=O)CCCCCCCCC.CCN(CC)CC` [RC-522], in assay [2], the “protection against L. monocytogenes challenge (reduction of log 10 bacteria per spleen vs vehicle)” value is “protection that was equal to or greater than that provided by MPL”. In the assay with human whole blood (donor 1, ratio of IL-10 to TNF), the IL10/TNFα cba is recorded as 2.7. The TNFα/IL10 cba with human whole blood (donor 1, ratio of TNF to IL-10) was 0.4.
In the case of `CCCCCCCCCCCCCC(=O)O[C@H](CCCCCCCCCCC)CC(=O)NCCCO[C@@H]1O[C@H](CO)[C@@H](OP(=O)(O)O)[C@H](OC(=O)C[C@@H](CCCCCCCCCCC)OC(=O)CCCCCCCCCCCCC)[C@H]1NC(=O)C[C@@H](CCCCCCCCCCC)OC(=O)CCCCCCCCCCCCC.CCN(CC)CC` [RC-525], the IL10/TNFα cba in the assay on human whole blood (donor 1, ratio of IL-10 to TNF) is 3.7; with human whole blood (donor 2, ratio of IL-10 to TNF) it was 0.7. The TNFα/IL10 cba in the assay on human whole blood (donor 1, ratio of TNF to IL-10) was 1.8; in the assay with human whole blood (donor 2, ratio of TNF to IL-10) it was 1.2.
For `CCCCCCCCCCC[C@H](CC(=O)N[C@H]1[C@H](OC[C@H](NC(=O)C[C@@H](CCCCCCCCCCC)OC(=O)CCCCCCCC)C(=O)O)O[C@H](CO)[C@@H](OP(=O)(O)O)[C@@H]1OC(=O)C[C@@H](CCCCCCCCCCC)OC(=O)CCCCCCCC)OC(=O)CCCCCCCC.CCN(CC)CC` [RC-537], the “% inhib. LPS IL-8” value in assay [1] came out at 33%. The “IL-1β cba2” value in the assay with human whole blood is on record as 8353.
For the compound `CCCCCCCCCCC[C@H](CC(=O)N[C@H]1[C@H](OC[C@H](NC(=O)C[C@@H](CCCCCCCCCCC)OC(=O)CCCCCCCCCC)C(=O)O)O[C@H](CO)[C@@H](OP(=O)(O)O)[C@@H]1OC(=O)C[C@@H](CCCCCCCCCCC)OC(=O)CCCCCCCCCC)OC(=O)CCCCCCCCCC.CCN(CC)CC` [RC-538], the “% inhib. LPS IL-8” value in assay [1] is listed as −3%. In the assay on human whole blood, the IL10/TNFα cba was 0.5 and 0.3; the “IL-1β cba2” value is 7767; the TNFα/IL10 cba is 2.3 and 4.
On to `CCCCCCCCCCC[C@H](CC(=O)N[C@@H](CCO)CO[C@@H]1O[C@H](CO)[C@@H](OP(=O)(O)O)[C@H](OC(=O)C[C@@H](CCCCCCCCCCC)OC(=O)CCCCCCCCC)[C@H]1NC(=O)C[C@@H](CCCCCCCCCCC)OC(=O)CCCCCCCCC)OC(=O)CCCCCCCCC.CCN(CC)CC` [RC-541], for which, in assay [2], the “protection against L. monocytogenes challenge (reduction of log 10 bacteria per spleen vs vehicle)” value is listed as “protection that was equal to or greater than that provided by MPL”.
For `CCCCCCCCCCC[C@H](CC(=O)N[C@@H](CO)CO[C@@H]1O[C@H](CO)[C@@H](OP(=O)(O)O)[C@H](OC(=O)C[C@@H](CCCCCCCCCCC)OC(=O)CCCCCCCCC)[C@H]1NC(=O)C[C@@H](CCCCCCCCCCC)OC(=O)CCCCCCCCC)OC(=O)CCCCCCCCC.CCN(CC)CC` [RC-545], the “protection against L. monocytogenes challenge (reduction of log 10 bacteria per spleen vs vehicle)” value in assay [2] was “protection that was equal to or greater than that provided by MPL”.
`CCCCCCCCCCC[C@H](CC(=O)N[C@H]1[C@H](OC[C@@H](NC(=O)C[C@@H](CCCCCCCCCCC)OC(=O)CCCCCCCCC)C(=O)O)O[C@H](CO)[C@@H](OP(=O)(O)O)[C@@H]1OC(=O)C[C@@H](CCCCCCCCCCC)OC(=O)CCCCCCCCC)OC(=O)CCCCCCCCC.CCN(CC)CC` [RC-547]: in assay [2], the “protection against L. monocytogenes challenge (reduction of log 10 bacteria per spleen vs vehicle)” value is “protection that was equal to or greater than that provided by MPL”.
With `CCCCCCCCCCC[C@H](CC(=O)N[C@H]1[C@H](OC[C@H](NC(=O)C[C@@H](CCCCCCCCCCC)OC(=O)CCCCCC)C(=O)O)O[C@H](CO)[C@@H](OP(=O)(O)O)[C@@H]1OC(=O)C[C@@H](CCCCCCCCCCC)OC(=O)CCCCCC)OC(=O)CCCCCC.CCN(CC)CC` [RC-554], the “% inhib. LPS IL-8” value in assay [1] amounted to 100%. For the same compound, the “IL-1β cba2” value in the assay with human whole blood (donor 1) worked out at 545. Further, the IL10/TNFα cba in the assay on human whole blood (donor 2, ratio of IL-10 to TNF) turned out to be 1.1. For the same compound, the TNFα/IL10 cba in the assay with human whole blood (donor 2, ratio of TNF to IL-10) is reported as 0.9. In the assay on human whole blood, the “cytokine stimulation in human whole blood cultures” value (shortened to “cytokine stimulation”) was “little if any cytokine stimulation”.
For the compound `CCCCCCCCCCC[C@H](CC(=O)N[C@H]1[C@H](OC[C@H](NC(=O)C[C@@H](CCCCCCCCCCC)OC(=O)CCCCCCC)C(=O)O)O[C@H](CO)[C@@H](OP(=O)(O)O)[C@@H]1OC(=O)C[C@@H](CCCCCCCCCCC)OC(=O)CCCCCCC)OC(=O)CCCCCCC.CCN(CC)CC` [RC-555], the “% inhib. LPS IL-8” value in assay [1] was determined as 99%. Also, the “IL-1β cba2” value in the assay with human whole blood (donor 1) stood at 519. Also, the IL10/TNFα cba in the assay with human whole blood (donor 2, ratio of IL-10 to TNF) worked out at 1.2. Also, the TNFα/IL10 cba in the assay on human whole blood (donor 2, ratio of TNF to IL-10) is given as 0.8. Besides, the “cytokine stimulation” value with human whole blood is recorded as “little if any cytokine stimulation”.
Regarding `CCCCCCCCCCCCCC(=O)O[C@H](CCCCCCCCCCC)CC(=O)NCCCCO[C@@H]1O[C@H](CO)[C@@H](OP(=O)(O)O)[C@H](OC(=O)C[C@@H](CCCCCCCCCCC)OC(=O)CCCCCCCCCCCCC)[C@H]1NC(=O)C[C@@H](CCCCCCCCCCC)OC(=O)CCCCCCCCCCCCC.CCN(CC)CC` [RC-557], in the assay on human whole blood (donor 1, ratio of IL-10 to TNF), the IL10/TNFα cba came to 0.6. The TNFα/IL10 cba in the assay on human whole blood (donor 1, ratio of TNF to IL-10) was found to be 0.6; with human whole blood (donor 2, ratio of TNF to IL-10), 0.5.
In the case of `CCCCCCCCCCC[C@H](CC(=O)N[C@H]1[C@H](OCCCN(CC(=O)O)C(=O)C[C@@H](CCCCCCCCCCC)OC(=O)CCCCCCCCC)O[C@H](CO)[C@@H](OP(=O)(O)O)[C@@H]1OC(=O)C[C@@H](CCCCCCCCCCC)OC(=O)CCCCCCCCC)OC(=O)CCCCCCCCC.CCN(CC)CC` [RC-558], the “protection against L. monocytogenes challenge (reduction of log 10 bacteria per spleen vs vehicle)” value in assay [2] is “protection that was equal to or greater than that provided by MPL”.
`CCCCCCCCCCCC(=O)O[C@H](CCCCCCCCCCC)CC(=O)N[C@H]1[C@H](OC[C@H](NC(=O)C[C@@H](CCCCCCCCCCC)OC(=O)CCCCCCCCCCC)C(=O)O)O[C@H](CO)[C@@H](OP(=O)(O)O)[C@@H]1OC(=O)C[C@@H](CCCCCCCCCCC)OC(=O)CCCCCCCCCCC.CCN(CC)CC` [RC-560]: the “% inhib. LPS IL-8” value in assay [1] is on record as −1%. Moreover, the “IL-1β cba2” value in the assay with human whole blood worked out at 5833.
On to `CCCCCCCCCCC[C@H](CC(=O)N[C@H]1[C@H](OC[C@H](NC(=O)C[C@@H](CCCCCCCCCCC)OC(=O)CCCCCCCCC)C(=O)O)O[C@H](CO)[C@@H](OP(=O)(O)O)[C@@H]1OC(=O)C[C@@H](CCCCCCCCCCC)OC(=O)CCCCC)OC(=O)CCCCCCCCC.CCN(CC)CC` [RC-566], for which, in assay [1], the “% inhib. LPS IL-8” value was 93%. Also, the “cytokine stimulation” value in the assay with human whole blood is “little if any cytokine stimulation”.
The like results for `CCCCCCCCCCC[C@H](CC(=O)N[C@H]1[C@H](OC[C@H](NC(=O)C[C@@H](CCCCCCCCCCC)OC(=O)CCCCCCCCC)C(=O)O)O[C@H](CO)[C@@H](OP(=O)(O)O)[C@@H]1OC(=O)C[C@@H](CCCCCCCCCCC)OC(=O)CCCCC)OC(=O)CCCCC.CCN(CC)CC` [RC-567] were, in that order, 100% and “little if any cytokine stimulation”.
For `CCCCCCCCCCC[C@H](CC(=O)N[C@H]1[C@H](OC[C@H](NC(=O)C[C@@H](CCCCCCCCCCC)OC(=O)CCCCC)C(=O)O)O[C@H](CO)[C@@H](OP(=O)(O)O)[C@@H]1OC(=O)C[C@@H](CCCCCCCCCCC)OC(=O)CCCCC)OC(=O)CCCCCCCCC.CCN(CC)CC` [RC-568], in that order: 96% and “little if any cytokine stimulation”.
As to `CCCCCCCCCCC[C@H](CC(=O)N[C@H]1[C@H](OC[C@H](NC(=O)C[C@@H](CCCCCCCCCCC)OC(=O)CCCCC)C(=O)O)O[C@H](CO)[C@@H](OP(=O)(O)O)[C@@H]1OC(=O)C[C@@H](CCCCCCCCCCC)OC(=O)CCCCCCCCC)OC(=O)CCCCC.CCN(CC)CC` [RC-570], the “% inhib. LPS IL-8” value in assay [1] was 100%. Further, the “cytokine stimulation” value in the assay on human whole blood was “little if any cytokine stimulation”.
On to `CCCCCCCCCCCCCC(=O)O[C@H](CCCCCCCCCCC)CC(=O)NCCCCCCO[C@@H]1O[C@H](CO)[C@@H](OP(=O)(O)O)[C@H](OC(=O)C[C@@H](CCCCCCCCCCC)OC(=O)CCCCCCCCCCCCC)[C@H]1NC(=O)C[C@@H](CCCCCCCCCCC)OC(=O)CCCCCCCCCCCCC.CCN(CC)CC` [RC-571], for which, in the assay on human whole blood (donor 1, ratio of IL-10 to TNF), the IL10/TNFα cba was determined as 8.6. Moreover, in the assay with human whole blood (donor 1, ratio of TNF to IL-10), the TNFα/IL10 cba came out at 0.5.
For `CCCCCCCCCCC[C@H](CC(=O)N[C@@H](CCC(=O)O)CO[C@@H]1O[C@H](CO)[C@@H](OP(=O)(O)O)[C@H](OC(=O)C[C@@H](CCCCCCCCCCC)OC(=O)CCCCCCCCC)[C@H]1NC(=O)C[C@@H](CCCCCCCCCCC)OC(=O)CCCCCCCCC)OC(=O)CCCCCCCCC.CCN(CC)CC` [RC-573], in assay [2], the “protection against L. monocytogenes challenge (reduction of log 10 bacteria per spleen vs vehicle)” value is reported as “protection that was equal to or greater than that provided by MPL”.
